# Test results taken from US20260008746A1, “CATIONIC LIPID COMPOUND WITH HIGH EFFICIENCY, LOW TOXICITY AND STABLE EXPRESSION, AND COMPOSITION COMPRISNG SAME” (HANGZHOU TIANLONG PHARMACEUTICAL CO., LTD, priority 2023, published 2026).
# Assays:
# [1] = Determination of particle size and polydispersity index (PDI) of lipid nanoparticles by dynamic light scattering; assay type: physicochemical; conditions: LNP formulation of named cationic lipid/DSPC/cholesterol/DMG-PEG2000 49:10:39.5:1.5; for Particle size (nm): 90° scattering angle, 25° C
# Summary of the method: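 LNPs of cationic lipid/DSPC/cholesterol/DMG-PEG2000 (49:10:39.5:1.5 mol%), lipid:mRNA 15:1 w/w, carrying eGFP or Fluc mRNA, made by ethanol injection into citrate buffer pH 4–5, sonicated, PBS-exchanged by ultrafiltration. Size and PDI by dynamic light scattering after dilution in RNase-free water, 90° angle, 25 °C, triplicate.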
# 293T cells [2] = experiment: Cell survival rate determination (CCK-8); assay type: cell-based; conditions: for Cell survival rate (%): LNP formulation containing 1.5 μg Fluc-mRNA, 24 hours, CCK-8, absorbance at 450 nm; for cell survival rate lower than that of YK-101: cell survival rate of YK-101 minus that of named substance; for cell survival rate lower than that of YK-107: cell survival rate of YK-107 minus that of named substance; for cell survival rate lower than that of YK-108: cell survival rate of YK-108 minus that of named substance
# Summary of the method: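 293T cells were seeded overnight at 10,000 cells/well in 96-well plates, then exposed for 24 h to LNP containing 1.5 μg Fluc-mRNA (cationic:neutral:structural:polymer-conjugated lipid, 49:10:39.5:1.5 molar) or to Lipofectamine 3000. Viability was read by CCK-8, 1 h incubation, absorbance 450 nm.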
# BALB/C mice = experiment: In vivo imaging of Fluc-mRNA expression in mice delivered by LNP formulations; conditions: for average radiation intensity, 6 h / average radiation intensity, 24 h / average radiation intensity, 48 h / average radiation intensity, 7 d: LNP containing 10 pg Fluc-mRNA, intramuscular, female BALB/C mice
# Summary of the method: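 Female BALB/C mice (4-6 weeks, 17-19 g) received LNP carrying […] Fluc-mRNA intramuscularly. Substrate was given intraperitoneally at 6 h, 24 h, 48 h and 7 d, and average radiance was imaged by IVIS 5 min later.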
# 293T cells [3] = experiment: Fluorescent detection of Fluc-mRNA (cell transfection efficiency of LNP formulations); assay type: cell-based; conditions: for Relative light unit (RLU): LNP formulation containing 0.3 μg Fluc-mRNA, 96-well plate, 24 hours; for Multiples (YK-107): RLU of YK-107 / RLU of named substance; for Multiples (YK-108): RLU of YK-108 / RLU of named substance; for Ratio relative to SM-102: RLU of named substance / RLU of SM-102
# Summary of the method: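 293T cells seeded at 10,000 per well, cultured overnight, then given LNP carrying 0.3 μg Fluc-mRNA (cationic:neutral:structured:PEG-lipid 49:10:39.5:1.5 molar). Incubated 24 h. Luciferase signal read with kit reagent on an IVIS imaging system.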
SMILES,PDI(%) [1],Particle size (nm) [1],Cell survival rate (%) (293T cells [2]),cell survival rate lower than that of YK-101 (293T cells [2]),cell survival rate lower than that of YK-107 (293T cells [2]),cell survival rate lower than that of YK-108 (293T cells [2]),"average radiation intensity of YK-101, times that of named substance (BALB/C mice; 6 h)","average radiation intensity of YK-107, times that of named substance (BALB/C mice; 6 h)","average radiation intensity of YK-108, times that of named substance (BALB/C mice; 6 h)","average radiation intensity of YK-101, times that of named substance (BALB/C mice; 24 h)","average radiation intensity of YK-107, times that of named substance (BALB/C mice; 24 h)","average radiation intensity of YK-108, times that of named substance (BALB/C mice; 24 h)","average radiation intensity of YK-101, times that of named substance (BALB/C mice; 48 h)","average radiation intensity of YK-107, times that of named substance (BALB/C mice; 48 h)","average radiation intensity of YK-108, times that of named substance (BALB/C mice; 48 h)","average radiation intensity of YK-101, times that of named substance (BALB/C mice; 7 d)","average radiation intensity of YK-107, times that of named substance (BALB/C mice; 7 d)","average radiation intensity of YK-108, times that of named substance (BALB/C mice; 7 d)","average radiation intensity, 6 h (BALB/C mice; 6 h)","average radiation intensity, 24 h (BALB/C mice; 24 h)",further results
"CCCCCCCCCCCOC(=O)CCCCCN(CCO)CCCCCCCC(=O)OC(CCCCCCCC)CCCCCCCC [SM-102, reference compound]",17.4%,142 nm,68.17%,21.95%,22.28%,21.69%,2.2 times,2.3 times,2.9 times,9.0 times,11.1 times,11.9 times,5.8 times,7.1 times,7.2 times,2.1 times,2.3 times,2.4 times,689570,117750,"average radiation intensity, 48 h (BALB/C mice; 48 h): 31900; average radiation intensity, 7 d (BALB/C mice; 7 d): 5834; expression amount of mRNA in mice of YK-108, times that of named substance (BALB/C mice; highest multiple, time point not stated): up to 11 times; Relative light unit (RLU) (293T cells [3]): 1534210 RLU; Multiples (YK-101) (293T cells [3]; RLU of YK-101 / RLU of named substance): 13.25; Multiples (YK-107) (293T cells [3]): 14.58; Multiples (YK-108) (293T cells [3]): 16.07; Ratio relative to SM-102 (293T cells [3]): 1.00"
CCCCCCCCCCOC(=O)CCCN(CCO)CCCCC(=O)OCCC(CCCCCC)CCCCCC [YK-104],26.9%,200 nm,73.55%,16.57%,16.90%,16.31%,2.0 times,2.1 times,2.7 times,9.3 times,11.4 times,12.3 times,5.6 times,6.8 times,7.0 times,1.5 times,1.7 times,1.8 times,747000,113940,"average radiation intensity, 48 h (BALB/C mice; 48 h): 33095; average radiation intensity, 7 d (BALB/C mice; 7 d): 7969; Relative light unit (RLU) (293T cells [3]): 1693707 RLU; Multiples (YK-107) (293T cells [3]): 13.20; Multiples (YK-108) (293T cells [3]): 14.56; Ratio relative to SM-102 (293T cells [3]): 1.10; difference from SM-102 in Fluc-mRNA fluorescence (GraphPad Prism analysis) (293T cells [3]; statistical comparison with SM-102): no significant difference"
